According to patent US5047512A, “Immobilized cyclophilin and methods of using such” (priority 1987, dated 1991):
“And” between values parts separate entries of the source, which are not always exact repeats. Identical values can stand only once. Where a SMILES comes first, the peptide text is derived from it. [ ]: non-standard residue; d: D form. NMe(dihydroBmt) = CCCC[C@@H](C)[C@@H](O)[C@H](NC)C(=O)O; NMeL = CN[C@@H](CC(C)C)C(=O)O; NMeV = CN[C@H](C(=O)O)C(C)C; Sar = CNCC(=O)O

Tests used:
[1] = molecular target: T1, cyclophilin (Bos taurus, UniProt P62935); assay: Cyclophilin affinity: enhancement of the intrinsic tryptophan fluorescence of cyclophilin by CsA or analogs; type: binding; conditions: 5 ug/ml cyclophilin, pH 7.2; for Cyclophilin affinity 0.25 ug/ml: ligand 0.25 ug/ml; for Cyclophilin affinity 1.0 ug/ml: ligand 1.0 ug/ml
T1 construct: from tissue; host or cells: purified from tissue cytosol

[2] = Retention of analog relative to CsA on a uBondapak phenyl column as a measure of hydrophobicity; type: physicochemical; conditions: isocratic 60% acetonitrile, 1 ml/min
[3] = Isoelectric point of cyclophilin; type: physicochemical
Protocol: The column was harvested at a flow rate of 1 ml/min. and the pH of each fraction was measured prior to titration with 1M potassium dihydrogen phosphate to pH 7.0.

[4] = Stability of CsA binding activity of cyclophilin; type: physicochemical
Excerpt: Similarly, it can be used to purify the ligand from a composition containing ligand. For example, the cyclophilin can be used for purifying CsA or related structures from a yeast fermentation broth in which the CsA is produced. Further, it can be used to select compounds which bind to cyclophilin as a screening test for identifying new immunosuppressant drugs. In these various procedures, it is preferred, although not required, to immobilize the cyclophilin. This can be accomplished by any procedure known in the art. A particularly useful immobilizing matrix is agarose having carboxy terminated C12 spacer arm esterfied to N-hydroxysuccinimide. This matrix is commercially available under the name Affigel-10 (Biorad). The immobilized cyclophilin is prepared by effecting a transamination with the N-hydroxysuccinimide being split off and the cyclophilin replacing it. The binding of the cyclophilin to this matrix can result in a marked stabilization of the bound activity through a three-dimensional stabilization achieved by multiple bonds through the ε-amino groups of lysine.

[5] = CsA binding activity (3H-CsA binding, Sephadex LH-20 columns); conditions: for CsA binding specific activity: purified bovine isoforms, weak cation exchange HPLC; for CsA bound per mole of cyclophilin species: stoichiometry, major and minor isoforms
Protocol: A typical procedure for the purification of cyclophilin will next be described. […] After addition of 10 ul ^3 H-CsA (50 ug/ml; 0.05 uCi/ml in 40% ethanol), tubes were agitated gently and 50 ul was applied to 1.8 ml Sephadex LH-20 (hydroxypropylated […]) columns pre-equilibrated with assay buffer. The samples were then washed into the columns with 500 ul of assay buffer followed by an additional 500 ul to elute cyclophilin-CsA complexes. Elution fractions were diluted in 5.6 ml Liquiscint (a fluor-containing liquid to permit β-scintillation counting of ^3 H) and the binding activity quantified as equal to (cpm - background).div.(quench correction×^3 H-CsA specific activity)×(volume of test sample).
The isoforms of bovine cyclophilin were separated by weak cation exchange high pressure liquid chromatography. […] Samples were injected onto a weak cation exchange HPLC column (Synchropak CM300:[…]; pore size 300 Å) pre-equilibrated with 5 mM potassium phosphate, 5 mM 2-ME, pH 7.2. The isoforms were eluted at 1 ml/min with a concave gradient (5 mM potassium phosphate, pH 7.2 to 175 mM NaCl, 5 mM potassium phosphate, pH 7.2) generated with a gradient programmer. Milligram quantities of the bovine cyclophilin isoforms were obtained by automating injection, gradient elution and collection. […] The disassociation constant is about 2×10^-7 M.

T1 sequence (P62935 whole entry): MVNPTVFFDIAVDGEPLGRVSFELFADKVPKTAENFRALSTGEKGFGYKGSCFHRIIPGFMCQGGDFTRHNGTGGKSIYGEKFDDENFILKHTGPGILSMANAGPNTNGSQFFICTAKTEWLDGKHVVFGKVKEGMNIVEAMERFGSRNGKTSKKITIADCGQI

Compound | Cyclophilin affinity 0.25 ug/ml [1] | Cyclophilin affinity 1.0 ug/ml [1] | Retention time of analog relative to CsA [2] | other results
C/C=C/C[C@@H](C)[C@@H](O)[C@H]1C(=O)N[C@@H]([C@@H](C)O)C(=O)N(C)CC(=O)N(C)[C@@H](CC(C)C)C(=O)N[C@@H](C(C)C)C(=O)N(C)[C@@H](CC(C)C)C(=O)N[C@@H](C)C(=O)N[C@H](C)C(=O)N(C)[C@@H](CC(C)C)C(=O)N(C)[C@@H](CC(C)C)C(=O)N(C)[C@@H](C(C)C)C(=O)N1C [CsC, cyclosporin C] | 0.31 | 0.69 | 0.70 | –
C/C=C/C[C@@H](C)[C@@H](O)[C@H]1C(=O)N[C@@H](C(C)C)C(=O)N(C)CC(=O)N(C)[C@@H](CC(C)C)C(=O)N[C@@H](C(C)C)C(=O)N(C)[C@@H](CC(C)C)C(=O)N[C@@H](C)C(=O)N[C@H](C)C(=O)N(C)[C@@H](CC(C)C)C(=O)N(C)[C@@H](CC(C)C)C(=O)N(C)[C@@H](C(C)C)C(=O)N1C [CsD] | 0.21 | 0.69 | 1.20 | –
C/C=C/C[C@@H](C)[C@@H](O)[C@H]1C(=O)N[C@@H](CCC)C(=O)N(C)CC(=O)N(C)[C@@H](CC(C)C)C(=O)N[C@@H](C(C)C)C(=O)N(C)[C@@H](CC(C)C)C(=O)N[C@@H](C)C(=O)N[C@H](C)C(=O)N(C)[C@@H](CC(C)C)C(=O)N(C)[C@@H](CC(C)C)C(=O)N(C)[C@@H](C(C)C)C(=O)N1C [CsG] | 0.30 | 0.87 | 1.14 | –
CCCC[C@@H](C)[C@@H](O)[C@H]1C(=O)N[C@@H]([C@@H](C)O)C(=O)N(C)CC(=O)N(C)[C@@H](CC(C)C)C(=O)N[C@@H](C(C)C)C(=O)N(C)[C@@H](CC(C)C)C(=O)N[C@@H](C)C(=O)N[C@H](C)C(=O)N(C)[C@@H](CC(C)C)C(=O)N(C)[C@@H](CC(C)C)C(=O)N(C)[C@@H](C(C)C)C(=O)N1C [Dihydro-CsC] (cyclo(A[dA][NMeL][NMeL][NMeV][NMe(dihydroBmt)]T[Sar][NMeL]V[NMeL])) | 0.33 | 0.70 | 0.79 | –
CCCC[C@@H](C)[C@@H](O)[C@H]1C(=O)N[C@@H](C(C)C)C(=O)N(C)CC(=O)N(C)[C@@H](CC(C)C)C(=O)N[C@@H](C(C)C)C(=O)N(C)[C@@H](CC(C)C)C(=O)N[C@@H](C)C(=O)N[C@H](C)C(=O)N(C)[C@@H](CC(C)C)C(=O)N(C)[C@@H](CC(C)C)C(=O)N(C)[C@@H](C(C)C)C(=O)N1C [Dihydro-CsD] (cyclo(A[dA][NMeL][NMeL][NMeV][NMe(dihydroBmt)]V[Sar][NMeL]V[NMeL])) | 0.19 | 0.72 | 1.28 | –
C/C=C/C[C@@H](C)[C@@H](OC(C)=O)[C@H]1C(=O)N[C@@H](CC)C(=O)N(C)CC(=O)N(C)[C@@H](CC(C)C)C(=O)N[C@@H](C(C)C)C(=O)N(C)[C@@H](CC(C)C)C(=O)N[C@@H](C)C(=O)N[C@H](C)C(=O)N(C)[C@@H](CC(C)C)C(=O)N(C)[C@@H](CC(C)C)C(=O)N(C)[C@@H](C(C)C)C(=O)N1C [O-Acetyl-CsA] | -0.02 | -0.03 | 1.69 | –
Bovine cyclophilin: Bovine thymocyte cyclophilin contains 163 amino acid residues; sequence in FIG. 1 | – | – | – | isoelectric point [3]: about 9.6
Human cyclophilin: N-terminal sequence (72 residues) of bovine and human cyclophilin is completely identical | – | – | – | isoelectric point [3]: 7.4 and 9.1
cyclophilin: homogeneous cytosolic binding protein which has a molecular weight of approximately 17,600 daltons | – | – | – | stability of CsA binding activity ([4]; temperature, pH, proteases, in words): unstable at 56 °C and at pH 4 or 9.5, and sensitive to proteases, i.e. trypsin; irreversible loss of CsA binding activity ([4]; unbound cyclophilin in solution with 8M urea, after dialysis): at least 60%; loss of CsA binding activity in 30% acetonitrile ([4]; unbound cyclophilin, 10 minute exposure to 30% acetonitrile): complete loss of activity; CsA binding specific activity of purified cyclophilin ([5]; purified cyclophilin): above 50 ug per mg of protein
major isoform of cyclophilin: major isoform of bovine cyclophilin separated by weak cation exchange HPLC | – | – | – | CsA binding specific activity [5]: 77 ug per mg of protein; CsA bound per mole of cyclophilin species [5]: about one
minor isoform of cyclophilin: minor isoform of bovine cyclophilin separated by weak cation exchange HPLC | – | – | – | CsA binding specific activity [5]: 67 ug per mg of protein; CsA bound per mole of cyclophilin species [5]: about one
